Here are results for one sequence from PMC7440915, “Discovery of surrogate agonists for visceral fat Treg cells that modulate metabolic indices in vivo” (eLife, 2020).

Where no end group is shown, it is not given here. Where only a bound is given, the exact number is not on record here.

This assay has as its system vTreg53 Treg cells. As to the kind of experiment: Expansion of transferred vTreg53 Treg cells in Spl/LN or VAT after prime and boost. The format is in vivo, mouse. The settings on record: compared with adjuvant alone, CFA s.c. then IFA i.p. An excerpt: Figure 4. SPs induce proliferation and activation of vTreg53 Treg cells in vitro and in vivo. (A–D) Proliferation and activation of vTreg53 Treg cells by different concentrations of SPs for 3 days in vitro (n = 3). (A) Representative flow cytometric plot of cell division. (B) Summary of cell proliferation. (C) Mean flourescence intensity (MFI) of CD44 staining in clonotype^+ Treg cells. (D) MFI of CD62L staining in clonotype^+ Treg cells. (E) Proliferation of transferred CD45.2^+ vTreg53 Treg cells in the spleen of CD45.1^+ B6 recipient mice immunized s.c. with CFA or CFA/Fat1562 at day 3 (n = 3). […]
To assess early Treg proliferation following peptide stimulation in vivo, 0.4 million Treg cells were sorted from pooled Spl and LNs of 6-8wk-old male CD45.2^+ Tg^+ Foxp3-GFP^KI/y mice by Moflo, labeled by the CellTrace Violet dye (ThermoFisher Scientific), and were i.v.-injected into 6-8wk old male B6.CD45.1^+ mice. […] Proliferation of clonotype^+ Tregs in the spleen was determined three days later. […] Six weeks later, the recipient mice were immunized with 200 µg CFA/peptides s.c. on the lower back, and one week later were boosted with 100 μg IFA/peptides i.p. After another week, clonotype^+ CD45.2^+ Treg cells from the Spl/LNs or VAT of recipient mice were analyzed by flow cytometry and double-sorted for ultra-low-input RNA-seq. […]

In the case of TMYKNPRPMAATG [Fat1562], the “expansion of clonotype^+ Treg cells in VAT” value is more than 25 fold.
